Results published in ChEMBL document CHEMBL4364276, “Discovery of 4-phenyl-2H-benzo[b][1,4]oxazin-3(4H)-one derivatives as potent and orally active PI3K/mTOR dual inhibitors” (Eur J Med Chem, 2019).

Columns and labels:
HeLa = experiment: Antitumor activity against human HeLa cells xenografted in BALB/c nude mouse assessed as tumor growth inhibition at 50 mg/kg, ig administered for 30 days measured every 3 days during compound dosing relative to control; format: functional; details: po, read-out: TGI
[1] = target: Calcium/calmodulin-dependent protein kinase type 1D (Homo sapiens) (UniProt Q8IU85); experiment: Inhibition of human CAMK1D at 100 nM using KKALRRQETVDAL as substrate by [gamma-33P]-ATP assay
[2] = target: Cyclin-C/Cyclin-dependent kinase 19 (Homo sapiens) (UniProt Q9BWU1+P24863); experiment: Inhibition of human CDK19/cyclin-C at 100 nM using RB protein as substrate by [gamma-33P]-ATP assay; format: protein-complex assay
[3] = target: Cyclin-dependent kinase 2/cyclin E1 (Homo sapiens) (UniProt P24864+P24941); experiment: Inhibition of human CDK2/cyclin-E at 100 nM using histone H1 as substrate by [gamma-33P]-ATP assay; format: protein-complex assay
[4] = target: Discoidin domain-containing receptor 2 (Homo sapiens) (UniProt Q16832); experiment: Inhibition of human DDR2 at 100 nM using KKSRGDYMTMQIG as substrate by [gamma-33P]-ATP assay
[5] = target: Myotonin-protein kinase (Homo sapiens) (UniProt Q09013); experiment: Inhibition of human DMPK at 100 nM using KKRNRRLSVA as substrate by [gamma-33P]-ATP assay
[6] = target: Serine/threonine-protein kinase 17A (Homo sapiens) (UniProt Q9UEE5); experiment: Inhibition of human DRAK1 at 100 nM using KKLNRTLSFAEPG as substrate by [gamma-33P]-ATP assay
[7] = target: Receptor tyrosine-protein kinase erbB-4 (Homo sapiens) (UniProt Q15303); experiment: Inhibition of human ERBB4 at 100 nM using poly[Glu:Tyr] (4:1) as substrate by [gamma-33P]-ATP assay
[8] = target: Beta-adrenergic receptor kinase 1 (Homo sapiens) (UniProt P25098); experiment: Inhibition of human GRK2 at 100 nM using casein as substrate by [gamma-33P]-ATP assay
[9] = target: Glycogen synthase kinase-3 alpha (Homo sapiens) (UniProt P49840); experiment: Inhibition of human GSK3A at 100 nM using YRRAAVPPSPSLSRHSSPHQ(pS)EDEEE as substrate by [gamma-33P]-ATP assay
[10] = target: Dual specificity mitogen-activated protein kinase kinase 7 (Homo sapiens) (UniProt O14733); experiment: Inhibition of human MKK7 at 100 nM using JNK as substrate by [gamma-33P]-ATP assay
[11] = target: Mitogen-activated protein kinase kinase kinase 11 (Homo sapiens) (UniProt Q16584); experiment: Inhibition of human MLK3 at 100 nM using MBP as substrate by [gamma-33P]-ATP assay
[12] = target: Serine/threonine-protein kinase OSR1 (Homo sapiens) (UniProt O95747); experiment: Inhibition of human OSR1 at 100 nM using RRHYYYDTHTNTYYLRTFGHNTRR as substrate by [gamma-33P]-ATP assay
[13] = target: Ribosomal protein S6 kinase beta-2 (Homo sapiens) (UniProt Q9UBS0); experiment: Inhibition of human p70S6Kb at 100 nM using KKRNRTLTK as substrate by [gamma-33P]-ATP assay
[14] = target: Serine/threonine-protein kinase PAK 1 (Homo sapiens) (UniProt Q13153); experiment: Inhibition of human PAK1 at 100 nM using RRRLSFAEPG as substrate by [gamma-33P]-ATP assay
[15] = target: Serine/threonine-protein kinase PAK 3 (Homo sapiens) (UniProt O75914); experiment: Inhibition of human PAK3 at 100 nM using RRRLSFAEPG as substrate by [gamma-33P]-ATP assay
[16] = target: 3-phosphoinositide-dependent protein kinase 1 (Homo sapiens) (UniProt O15530); experiment: Inhibition of human PDK1/PDPk1 at 100 nM using [KTFCGTPEYLAPEVRREPRILSEEEQEMFRDFDYIADWC as substrate by [gamma-33P]-ATP assay
[17] = target: cAMP-dependent protein kinase catalytic subunit alpha (Homo sapiens) (UniProt P17612); experiment: Inhibition of human PKA at 100 nM using LCGRTGRRNSI as substrate by [gamma-33P]-ATP assay
[18] = target: Protein kinase C beta type (Homo sapiens) (UniProt P05771); experiment: Inhibition of human PKCb2 at 100 nM using Histone H1 as substrate by [gamma-33P]-ATP assay
[19] = target: Serine/threonine-protein kinase PLK4 (Homo sapiens) (UniProt O00444); experiment: Inhibition of human PLK4 at 100 nM using casein as substrate by [gamma-33P]-ATP assay
[20] = target: Serine/threonine-protein kinase SIK1 (Homo sapiens) (UniProt P57059); experiment: Inhibition of human SIK1 at 100 nM using AMARAASAAALARRR as substrate by [gamma-33P]-ATP assay
[21] = target: Serine/threonine-protein kinase SIK3 (Homo sapiens) (UniProt Q9Y2K2); experiment: Inhibition of human SIK3 at 100 nM using AMARAASAAALARRR as substrate by [gamma-33P]-ATP assay
[22] = target: SRSF protein kinase 1 (Homo sapiens) (UniProt Q96SB4); experiment: Inhibition of human SRPK1 at 100 nM using GRSRSRSRSR as substrate by [gamma-33P]-ATP assay
[23] = target: Mitogen-activated protein kinase kinase kinase 7 (Homo sapiens) (UniProt O43318); experiment: Inhibition of human TAK1 at 100 nM using casein as substrate by [gamma-33P]-ATP assay
[24] = target: Serine/threonine-protein kinase TBK1 (Homo sapiens) (UniProt Q9UHD2); experiment: Inhibition of human TBK1 at 100 nM using KRRRAL[pS]VASLPGL as substrate by [gamma-33P]-ATP assay
[25] = target: Serine/threonine-protein kinase tousled-like 2 (Homo sapiens) (UniProt Q86UE8); experiment: Inhibition of human TLK2 at 100 nM using casein as substrate by [gamma-33P]-ATP assay
[26] = target: TRAF2 and NCK-interacting protein kinase (Homo sapiens) (UniProt Q9UKE5); experiment: Inhibition of human TNIK at 100 nM using RLGRDKYKTLRQIRQ as substrate by [gamma-33P]-ATP assay
[27] = target: High affinity nerve growth factor receptor (Homo sapiens) (UniProt P04629); experiment: Inhibition of human TRKA at 100 nM using poly[Glu:Tyr] (4:1) as substrate by [gamma-33P]-ATP assay
[28] = target: Wee1-like protein kinase (Homo sapiens) (UniProt P30291); experiment: Inhibition of human WEE1 at 100 nM using MBP as substrate by [gamma-33P]-ATP assay
Homo sapiens = organism: Homo sapiens; experiment: Inhibition of human AMPK (A1/B2/G1) at 100 nM using HMRSAMSGLHLVKRR as substrate by [gamma-33P]-ATP assay

Chain of SRSF protein kinase 1 (Homo sapiens) (Q96SB4 whole entry): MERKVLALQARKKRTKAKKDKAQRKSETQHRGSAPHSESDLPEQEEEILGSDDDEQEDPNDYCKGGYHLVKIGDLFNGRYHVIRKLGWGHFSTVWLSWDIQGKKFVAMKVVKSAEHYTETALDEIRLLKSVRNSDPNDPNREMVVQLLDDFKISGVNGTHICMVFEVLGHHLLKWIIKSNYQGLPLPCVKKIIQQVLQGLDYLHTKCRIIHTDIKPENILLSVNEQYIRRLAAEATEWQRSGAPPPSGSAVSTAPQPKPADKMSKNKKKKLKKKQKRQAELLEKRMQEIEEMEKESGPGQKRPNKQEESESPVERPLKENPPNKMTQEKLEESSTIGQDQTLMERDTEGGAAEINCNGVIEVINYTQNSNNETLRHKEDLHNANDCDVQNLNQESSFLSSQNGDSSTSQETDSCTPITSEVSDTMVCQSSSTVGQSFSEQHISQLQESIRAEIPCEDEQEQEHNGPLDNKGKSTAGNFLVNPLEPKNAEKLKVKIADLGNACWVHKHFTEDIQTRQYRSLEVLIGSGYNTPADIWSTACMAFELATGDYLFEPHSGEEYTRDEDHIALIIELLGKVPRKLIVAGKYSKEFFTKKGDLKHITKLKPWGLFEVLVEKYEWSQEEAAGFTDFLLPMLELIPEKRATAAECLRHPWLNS
Chain of Myotonin-protein kinase (Homo sapiens) (Q09013 whole entry): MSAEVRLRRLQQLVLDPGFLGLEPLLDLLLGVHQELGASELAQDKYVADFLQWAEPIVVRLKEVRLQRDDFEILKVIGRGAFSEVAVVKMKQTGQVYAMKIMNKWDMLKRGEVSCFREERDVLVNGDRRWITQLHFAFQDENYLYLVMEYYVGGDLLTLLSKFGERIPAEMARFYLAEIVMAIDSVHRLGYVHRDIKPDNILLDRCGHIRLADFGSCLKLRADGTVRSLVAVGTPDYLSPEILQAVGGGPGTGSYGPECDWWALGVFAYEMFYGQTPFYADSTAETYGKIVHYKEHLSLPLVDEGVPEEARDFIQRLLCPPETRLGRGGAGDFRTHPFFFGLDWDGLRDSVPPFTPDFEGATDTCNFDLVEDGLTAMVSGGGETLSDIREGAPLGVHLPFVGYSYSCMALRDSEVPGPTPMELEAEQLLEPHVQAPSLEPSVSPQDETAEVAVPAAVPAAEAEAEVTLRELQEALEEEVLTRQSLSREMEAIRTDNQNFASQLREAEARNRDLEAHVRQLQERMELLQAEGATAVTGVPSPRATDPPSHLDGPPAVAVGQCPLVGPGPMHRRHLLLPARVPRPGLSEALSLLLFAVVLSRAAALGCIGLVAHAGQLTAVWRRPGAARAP
Chain of Serine/threonine-protein kinase tousled-like 2 (Homo sapiens) (Q86UE8 whole entry, looked up): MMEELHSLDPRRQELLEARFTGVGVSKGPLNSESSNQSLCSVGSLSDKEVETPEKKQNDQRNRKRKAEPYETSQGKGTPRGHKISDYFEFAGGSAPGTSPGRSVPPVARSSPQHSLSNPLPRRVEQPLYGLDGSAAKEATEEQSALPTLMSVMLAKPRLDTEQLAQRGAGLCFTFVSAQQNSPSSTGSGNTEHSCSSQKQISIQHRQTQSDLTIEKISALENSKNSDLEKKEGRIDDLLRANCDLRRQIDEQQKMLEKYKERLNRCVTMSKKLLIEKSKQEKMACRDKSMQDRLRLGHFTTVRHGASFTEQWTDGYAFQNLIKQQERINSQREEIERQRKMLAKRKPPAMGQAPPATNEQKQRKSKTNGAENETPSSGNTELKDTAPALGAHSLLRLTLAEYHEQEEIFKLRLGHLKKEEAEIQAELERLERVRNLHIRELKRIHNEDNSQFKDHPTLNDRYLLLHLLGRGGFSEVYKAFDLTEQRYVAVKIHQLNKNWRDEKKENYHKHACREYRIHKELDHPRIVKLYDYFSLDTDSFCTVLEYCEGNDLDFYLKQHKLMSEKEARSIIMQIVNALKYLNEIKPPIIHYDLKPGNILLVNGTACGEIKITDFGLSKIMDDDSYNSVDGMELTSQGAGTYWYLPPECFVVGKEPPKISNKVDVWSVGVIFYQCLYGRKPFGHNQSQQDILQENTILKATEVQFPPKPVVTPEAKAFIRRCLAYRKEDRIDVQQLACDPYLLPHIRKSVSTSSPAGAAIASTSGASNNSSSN
Chain of Serine/threonine-protein kinase SIK3 (Homo sapiens) (Q9Y2K2 whole entry, looked up): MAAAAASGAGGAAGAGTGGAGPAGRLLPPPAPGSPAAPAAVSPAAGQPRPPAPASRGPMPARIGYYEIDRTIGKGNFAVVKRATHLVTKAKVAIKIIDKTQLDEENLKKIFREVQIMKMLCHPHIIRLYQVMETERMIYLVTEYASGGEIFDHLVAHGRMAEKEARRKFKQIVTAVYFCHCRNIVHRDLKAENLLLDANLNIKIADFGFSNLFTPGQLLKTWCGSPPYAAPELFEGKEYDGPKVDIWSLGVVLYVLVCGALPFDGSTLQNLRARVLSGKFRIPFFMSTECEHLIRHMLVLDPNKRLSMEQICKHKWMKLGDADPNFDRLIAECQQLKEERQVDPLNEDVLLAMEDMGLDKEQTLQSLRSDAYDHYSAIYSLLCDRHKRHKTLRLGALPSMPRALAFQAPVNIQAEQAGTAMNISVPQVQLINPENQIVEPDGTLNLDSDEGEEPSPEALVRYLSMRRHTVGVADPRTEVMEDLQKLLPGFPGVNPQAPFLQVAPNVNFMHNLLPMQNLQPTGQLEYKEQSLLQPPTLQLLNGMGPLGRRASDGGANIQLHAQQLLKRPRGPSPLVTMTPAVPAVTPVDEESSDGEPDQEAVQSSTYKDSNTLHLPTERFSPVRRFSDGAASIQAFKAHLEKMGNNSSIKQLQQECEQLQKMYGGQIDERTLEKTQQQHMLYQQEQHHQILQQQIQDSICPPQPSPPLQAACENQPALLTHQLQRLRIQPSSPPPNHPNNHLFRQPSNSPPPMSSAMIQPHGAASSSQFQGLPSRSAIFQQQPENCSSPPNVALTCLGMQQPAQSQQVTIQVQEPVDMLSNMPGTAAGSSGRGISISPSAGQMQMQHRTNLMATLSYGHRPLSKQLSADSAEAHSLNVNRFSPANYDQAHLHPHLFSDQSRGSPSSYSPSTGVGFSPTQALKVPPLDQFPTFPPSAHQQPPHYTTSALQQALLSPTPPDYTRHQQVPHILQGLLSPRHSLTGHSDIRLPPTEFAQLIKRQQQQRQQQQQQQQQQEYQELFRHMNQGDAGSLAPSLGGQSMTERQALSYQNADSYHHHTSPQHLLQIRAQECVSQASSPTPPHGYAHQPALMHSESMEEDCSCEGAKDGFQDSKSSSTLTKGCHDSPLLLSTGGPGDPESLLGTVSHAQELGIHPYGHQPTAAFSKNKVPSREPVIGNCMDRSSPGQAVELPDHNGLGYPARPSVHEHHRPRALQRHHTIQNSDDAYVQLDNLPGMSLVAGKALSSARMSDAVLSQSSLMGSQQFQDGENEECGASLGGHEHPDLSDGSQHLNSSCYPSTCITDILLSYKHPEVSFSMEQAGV
Chain of Calcium/calmodulin-dependent protein kinase type 1D (Homo sapiens) (Q8IU85 whole entry, looked up): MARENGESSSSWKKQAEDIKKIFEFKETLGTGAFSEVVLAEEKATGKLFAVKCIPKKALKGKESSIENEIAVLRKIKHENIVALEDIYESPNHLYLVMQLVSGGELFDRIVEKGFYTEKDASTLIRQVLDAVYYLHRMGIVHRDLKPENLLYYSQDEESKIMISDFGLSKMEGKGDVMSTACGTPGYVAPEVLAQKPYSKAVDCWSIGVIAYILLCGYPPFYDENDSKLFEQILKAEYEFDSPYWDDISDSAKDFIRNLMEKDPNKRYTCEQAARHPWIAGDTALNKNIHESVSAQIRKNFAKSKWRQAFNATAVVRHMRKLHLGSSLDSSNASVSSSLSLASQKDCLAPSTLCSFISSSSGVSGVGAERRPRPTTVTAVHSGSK
Chain of Dual specificity mitogen-activated protein kinase kinase 7 (Homo sapiens) (O14733 whole entry): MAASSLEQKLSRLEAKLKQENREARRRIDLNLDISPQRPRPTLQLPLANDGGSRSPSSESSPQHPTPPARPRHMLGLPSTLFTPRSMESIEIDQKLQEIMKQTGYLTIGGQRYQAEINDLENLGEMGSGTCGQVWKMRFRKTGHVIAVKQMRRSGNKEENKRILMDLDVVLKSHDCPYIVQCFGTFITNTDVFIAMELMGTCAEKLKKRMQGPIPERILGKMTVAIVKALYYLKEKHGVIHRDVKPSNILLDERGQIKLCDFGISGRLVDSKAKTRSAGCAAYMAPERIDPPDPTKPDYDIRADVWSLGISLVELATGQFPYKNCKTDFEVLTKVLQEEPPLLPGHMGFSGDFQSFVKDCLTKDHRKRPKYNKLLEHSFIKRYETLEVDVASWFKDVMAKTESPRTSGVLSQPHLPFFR
Chain of High affinity nerve growth factor receptor (Homo sapiens) (P04629 33-796 limits assumed): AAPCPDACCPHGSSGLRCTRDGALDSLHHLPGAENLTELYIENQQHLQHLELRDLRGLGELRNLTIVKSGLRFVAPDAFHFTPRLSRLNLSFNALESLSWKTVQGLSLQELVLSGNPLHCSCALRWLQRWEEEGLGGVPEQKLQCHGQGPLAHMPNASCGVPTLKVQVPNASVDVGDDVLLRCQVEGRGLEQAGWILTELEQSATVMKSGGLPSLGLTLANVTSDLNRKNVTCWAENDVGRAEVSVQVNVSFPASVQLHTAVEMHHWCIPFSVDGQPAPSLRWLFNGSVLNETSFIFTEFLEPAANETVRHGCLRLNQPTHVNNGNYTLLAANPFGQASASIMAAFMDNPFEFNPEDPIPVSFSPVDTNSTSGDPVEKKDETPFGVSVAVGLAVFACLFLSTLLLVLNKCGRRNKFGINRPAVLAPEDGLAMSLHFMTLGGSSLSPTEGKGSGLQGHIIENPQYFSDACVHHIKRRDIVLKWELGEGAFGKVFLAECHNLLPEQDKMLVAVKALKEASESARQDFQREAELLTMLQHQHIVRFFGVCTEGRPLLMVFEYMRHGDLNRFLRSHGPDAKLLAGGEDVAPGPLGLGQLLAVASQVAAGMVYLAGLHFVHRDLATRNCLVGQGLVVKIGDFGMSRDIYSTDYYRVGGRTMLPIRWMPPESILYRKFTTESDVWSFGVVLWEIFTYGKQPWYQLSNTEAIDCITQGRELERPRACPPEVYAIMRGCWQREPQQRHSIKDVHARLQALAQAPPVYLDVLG

## COc1ccc(N2C(=O)COc3ccc(-c4cnc(OC)c(NS(=O)(=O)c5ccc(F)cc5)c4)cc32)cc1
HeLa
  inhibition in vivo at 50 mg/kg: 87.7%
[1]
  inhibition: 0%
[2]
  inhibition: 4.5%
[3]
  inhibition: 11.2%
[4]
  inhibition: -1.84%
[5]
  inhibition: -4.58%
[6]
  inhibition: 0.44%
[7]
  inhibition: -0.06%
[8]
  inhibition: 0.16%
[9]
  inhibition: -8.76%
[10]
  inhibition: -2.26%
[11]
  inhibition: 3.29%
[12]
  inhibition: 4.85%
[13]
  inhibition: 22.3%
[14]
  inhibition: 7.71%
[15]
  inhibition: 4.51%
[16]
  inhibition: -3.45%
[17]
  inhibition: 15.1%
[18]
  inhibition: -6.74%
[19]
  inhibition: -1.06%
[20]
  inhibition: 5.31%
[21]
  inhibition: 8.49%
[22]
  inhibition: 1.44%
[23]
  inhibition: 12.5%
[24]
  inhibition: 5.37%
[25]
  inhibition: -7.96%
[26]
  inhibition: 15.6%
[27]
  inhibition: 5.12%
[28]
  inhibition: 6.18%
Homo sapiens
  inhibition: -4.96%
